Source: ChEMBL document CHEMBL1149093, “Design and synthesis of new templates derived from pyrrolopyrimidine as selective multidrug-resistance-associated protein inhibitors in multidrug resistance” (J Med Chem, 2004)

Key:
in vivo [1] = conditions: mouse, ip, 50 mg/kg
in vivo [2] = conditions: mouse, iv, 20 mg/kg
in vivo [3] = conditions: mouse, plasma, ip, 50 mg/kg
in vivo [4] = conditions: mouse, ip, 50 mg/kg; remark: listed apart in the source
in vivo [5] = conditions: mouse, plasma, iv, 20 mg/kg
in vivo [6] = conditions: mouse, iv, 20 mg/kg; remark: listed apart in the source

| Structure (SMILES) | AUC (in vivo [1]) [ng·h/mL] | AUC (in vivo [2]) [ng·h/mL] | Cmax (in vivo [3]) [µM] | half-life (in vivo [4]) [h] | Cmax (in vivo [5]) [µM] | half-life (in vivo [6]) [h] |
| --- | --- | --- | --- | --- | --- | --- |
| O=[N+]([O-])c1cc([N+](=O)[O-])c2[nH]c3c(N4CCN(CCc5ccc(F)c(F)c5)CC4)nc(CN4CCOCC4)nc3c2c1 | 30600 | 5100 | 26.4 | 6.86 | 9 | 2.4 |
| Cn1c2ccnc(N3CCOCC3)c2c2ncnc(N3CCN(CCc4ccc(F)c(F)c4)CC3)c21 |  | 6320 |  |  | 11.9 | 1.97 |
| Cn1c2cccc(C(N)=O)c2c2nc(CN3CCOCC3)nc(N3CCN(CCc4ccc(F)c(F)c4)CC3)c21 |  | 14000 |  |  | 15 | 3.03 |
